Source: US20230123334A1, “AMINO LIPID COMPOUND, PREPARATION METHOD THEREFOR, AND APPLICATION THEREOF” (SHENZHEN SHENXIN BIOTECHNOLOGY CO., LTD., priority 2020, published 2023)

Tested on: HEK293 cells
Experiment: Preliminary screening as mRNA vectors, EGFP mRNA transfection of HEK293 cells
Assay type: cell-based
Details: EGFP mRNA 50 ng per well, 96-well plates; percentage of GFP fluorescent cells relative to total number of cells (Hoechst)
Summary of the method: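 Each well of HEK293 cells received 50 ng of EGFP mRNA. Efficiency was expressed as percent GFP-expressing cells over Hoechst-defined total cell number.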

| SMILES | Absolute mRNA transfection efficiency in HEK293 cells |
| --- | --- |
| CCCCCCCCCCCCNc1nc(NCC2CCN(C)CC2)nc(SCCCCCCCCC)n1 [Compound D10S9N12] | 57.0% |
| CCCCCCCCCCCCCCCCCCNc1nc(NCCCN2CCOCC2)nc(SCCCCCCCCCC)n1 [Compound D8S10N18] | 0.1% |
| CCCCCCCCCCCCCNc1nc(NCCN2CCOCC2)nc(SCCCCCCCCCCCC)n1 [Compound D2S12N13] | 0.0% |
| CCCCCCCCCCCCCCCSc1nc(NCCCCCCCCC)nc(NCCN(CC)CC)n1 [Compound D7S15N9] | 9.4% |
| CCCCCCCCCCSc1nc(NCCCCCCCC)nc(NCCN2CCCCC2)n1 [Compound D4S10N8] | 0.1% |
| CCCCCCCCCCCCCCSc1nc(NCCCCCCCCCCC)nc(NCCCN2CCN(C)CC2)n1 [Compound D9S14N11] | 15.6% |
| CCCCCCCCCCCCCCSc1nc(NCCCN(C)C)nc(SCCCCCCC)n1 [Compound D6S7S14] | 59.7% |
| CCCCCCCCCCCCCCCCSc1nc(NCCCCCCCCCCCCCCC)nc(NCCN(C)C)n1 [Compound D1S16N15] | 1.4% |
| CCCCCCCCCSc1nc(NCCCCCC)nc(NCCCN(C)C)n1 [Compound D6S9N6] | 1.4% |
| CCCCCCCCCCCCCCCCCCNc1nc(NCCCN2CCN(C)CC2)nc(SCCCCCCCCCCCCCC)n1 [Compound D9S14N18] | 0.3% |
| CCCCCCCCCCCSc1nc(NCCCN2CCN(C)CC2)nc(SCCCCCCC)n1 [Compound D9S7S11] | 80.0% |
| CCCCCCCCCCCCCCCCCCNc1nc(NCCCN(C)C)nc(SCCCCCCC)n1 [Compound D6S7N18] | 49.2% |
| CCCCCCCCCCCCCCSc1nc(NCCCCCC)nc(NCCCN2CCOCC2)n1 [Compound D8S14N6] | 9.2% |
| CCCCCCCCCCCCNc1nc(NCCCN(C)C)nc(SCCCCCCCCCCC)n1 [Compound D6S11N12] | 15.9% |
| CCCCCCCCCCCCCCCCCCSc1nc(NCCCCCC)nc(NCCN2CCN(C)CC2)n1 [Compound D5S18N6] | 73.2% |
| CCCCCCCCCCCCCNc1nc(NCCN(C)C)nc(SCCCCCC)n1 [Compound D1S6N13] | 1.8% |
| CCCCCCCCCCCCCCCCCCSc1nc(NCCCCCC)nc(NCCN(CC)CC)n1 [Compound D7S18N6] | 19.5% |
| CCCCCCCCCCCCSc1nc(NCCCCCCCCCCC)nc(NCCCN(C)C)n1 [Compound D6S12N11] | 14.0% |
| CCCCCCCCCCCCCCCNc1nc(NCCCN2CCN(C)CC2)nc(SCCCCCCCCCCCCCC)n1 [Compound D9S14N15] | 0.5% |
| CCCCCCCCCCCCCCCCSc1nc(NCCN(CC)CC)nc(N(CCCCCCCCCCCC)CCCCCCCCCCCC)n1 [D7S16^2N12] | 0.8% |
| CCCCCCNc1nc(NCCN(C)C)nc(SCCCCCC)n1 [Compound D1S6N6] | 0.8% |
| CCCCCCCCSc1nc(NCCCCCC)nc(NCCN2CCOCC2)n1 [Compound D2S8N6] | 0.7% |
| CCCCCCCCCCCSc1nc(NCCN(C)C)nc(SCCCCCC)n1 [Compound D1S6S11] | 0.4% |

| SMILES | Absolute mRNA transfection efficiency in HEK293 cells |
| --- | --- |
| CCCCCCCCCCCCCCSc1nc(NCCCCCC)nc(NCCCN(C)C)n1 [Compound D6S14N6] | 59.9% |
| CCCCCCCCCCCCSc1nc(NCCCN2CCN(C)CC2)nc(SCCCCCC)n1 [Compound D9S6S12] | 1.0% |
| CCCCCCCCCCCCCCCCSc1nc(NCCCCCCCCCCCC)nc(NCCN(C)C)n1 [Compound D1S16N12] | 3.0% |
| CCCCCCCCCCCCCCCCCCSc1nc(NCCCCCCCCCCCCC)nc(NCCCN(C)C)n1 [Compound D6S18N13] | 1.0% |
| CCCCCCCCCSc1nc(NCC2CCN(C)CC2)nc(SCCCCCCC)n1 [Compound D10S7S9] | 33.5% |
| CCCCCCCCCCCCCCCNc1nc(NCCN2CCOCC2)nc(SCCCCCCCCC)n1 [Compound D2S9N15] | 5.9% |
| CCCCCCCCCSc1nc(NCCN2CCOCC2)nc(SCCCCCC)n1 [Compound D2S6S9] | 6.3% |
| CCCCCCCCCCCCCCSc1nc(NCCCCCCCCC)nc(NCCN2CCN(C)CC2)n1 [Compound D5S14N9] | 44.9% |
| CCCCCCCCCCCCCCCNc1nc(NCCCN(C)C)nc(SCCCCCC)n1 [Compound D6S6N15] | 12.1% |
| CCCCCCCCCCCCCCCNc1nc(NCCN(CC)CC)nc(SCCCCCCCCCC)n1 [Compound D7S10N15] | 2.0% |
| CCCCCCCCCCCCCNc1nc(NCCN2CCOCC2)nc(SCCCCCCCCCC)n1 [Compound D2S10N13] | 0.2% |
| CCCCCCCNc1nc(NCCN2CCOCC2)nc(SCCCCCC)n1 [Compound D2S6N7] | 2.7% |
| CCCCCCCCCNc1nc(NCCN2CCN(C)CC2)nc(SCCCCCCC)n1 [Compound D5S7N9] | 3.1% |
| CCCCCCCCCCCCCNc1nc(NCCN(CC)CC)nc(SCCCCCCCCCC)n1 [Compound D7S10N13] | 13.7% |
| CCCCCCCCCCCCNc1nc(NCCN2CCN(C)CC2)nc(SCCCCCCCCCCCC)n1 [Compound D5S12N12] | 3.5% |
| CCCCCCCCCCCCCCCCCCSc1nc(NCCCN2CCN(C)CC2)nc(N(CCCCCCCCCCCC)CCCCCCCCCCCC)n1 [D9S18^2N12] | 0.0% |
| CCCCCCCCCCCCCCCCNc1nc(NCCN(C)C)nc(SCCCCCCCCC)n1 [Compound D1S9N16] | 25.6% |
| CCCCCCCCCCCCSc1nc(NCCCCCC)nc(NCCN(CC)CC)n1 [Compound D7S12N6] | 2.1% |
| CCCCCCCCCCCCCCCCCCSc1nc(NCCCCCCCCCCCCCCC)nc(NCCN(CC)CC)n1 [Compound D7S18N15] | 0.3% |
| CCCCCCCCSc1nc(NCCCN2CCOCC2)nc(SCCCCCC)n1 [Compound D8S6S8] | 0.2% |
| CCCCCCCCCCSc1nc(NCCN2CCCCC2)nc(SCCCCCCCC)n1 [Compound D4S8S10] | 9.2% |
| CCCCCCCCCCSc1nc(NCCCCCCCCC)nc(NCCN(C)C)n1 [Compound D1S10N9] | 0.5% |
| CCCCCCCCCCCCCCCCCCSc1nc(NCCCCCCCC)nc(NCCN(C)C)n1 [Compound D1S18N8] | 38.0% |

| SMILES | Absolute mRNA transfection efficiency in HEK293 cells |
| --- | --- |
| CCCCCCCCCCCCCCCCNc1nc(NCCN2CCCCC2)nc(SCCCCCCCC)n1 [Compound D4S8N16] | 1.9% |
| CCCCCCCCCCSc1nc(NCCCCCCCCC)nc(NCCN2CCN(C)CC2)n1 [Compound D5S10N9] | 8.5% |
| CCCCCCCCCCSc1nc(NCCN(C)C)nc(SCCCCCC)n1 [Compound D1S6S10] | 0.7% |
| CCCCCCCCCCCCCCCCCCSc1nc(NCCCCCCCCCCC)nc(NCCN(CC)CC)n1 [Compound D7S18N11] | 10.7% |
| CCCCCCCCCCCCCCCSc1nc(NCCCCCCCCCCCC)nc(NCCCN2CCOCC2)n1 [Compound D8S15N12] | 0.3% |
| CCCCCCCCCCCCNc1nc(NCC2CCN(C)CC2)nc(SCCCCCC)n1 [Compound D10S6N12] | 9.6% |
| CCCCCCCCCCCCSc1nc(NCCCCCCCCC)nc(NCCCN(C)C)n1 [Compound D6S12N9] | 24.0% |
| CCCCCCCCCCCSc1nc(NCCCCCCCCC)nc(NCCN2CCN(C)CC2)n1 [Compound D5S11N9] | 41.5% |
| CCCCCCCCCCCCCCCCCCNc1nc(NCCN2CCN(C)CC2)nc(SCCCCCCCCCCC)n1 [Compound D5S11N18] | 4.7% |
| CCCCCCCCCCCCCCCCCCNc1nc(NCCN(C)C)nc(SCCCCCCC)n1 [Compound D1S7N18] | 35.7% |
| CCCCCCCCCCCCCNc1nc(NCCCN2CCN(C)CC2)nc(SCCCCCCCCCC)n1 [Compound D9S10N13] | 2.7% |
| CCCCCCCCCCCCCCSc1nc(NCCCCCC)nc(NCCN(CC)CC)n1 [Compound D7S14N6] | 15.7% |
| CCCCCCCCCCCCCCCSc1nc(NCCCCCCC)nc(NCCN(CC)CC)n1 [Compound D7S15N7] | 27.8% |
| CCCCCCCCCCCCCCCNc1nc(NCC2CCN(C)CC2)nc(SCCCCCCCCCCCC)n1 [Compound D10S12N15] | 4.1% |
| CCCCCCCCCCCCCCCCNc1nc(NCC2CCN(C)CC2)nc(SCCCCCCCCCCCCCCCC)n1 [Compound D10S16N16] | 2.8% |
| CCCCCCCCCCCSc1nc(NCCCCCCC)nc(NCCN(C)C)n1 [Compound D1S11N7] | 11.7% |
| CCCCCCCCCCCCCCCCCCNc1nc(NCCN(CC)CC)nc(SCCCCCCCCC)n1 [Compound D7S9N18] | 21.1% |
| CCCCCCCCCNc1nc(NCCN2CCCCC2)nc(SCCCCCCCCC)n1 [Compound D4S9N9] | 11.3% |
| CCCCCCCCCCCSc1nc(NCCCN(C)C)nc(SCCCCCC)n1 [Compound D6S6S11] | 15.7% |
| CCCCCCCCCCCCCCCCCCNc1nc(NCC2CCN(C)CC2)nc(SCCCCCCCCCC)n1 [Compound D10S10N18] | 6.0% |
| CCCCCCCCCCCCCCSc1nc(NCCCN2CCN(C)CC2)nc(SCCCCCCC)n1 [Compound D9S7S14] | 34.5% |
